The subject of series [1] is MCF-7-ADR cells. The experiment in a line: CD44+/CD24− surface marker analysis using flow cytometry. As to conditions: 1 μM, FIG. 3C. Type of series: cell-based, human. The protocol:
Cells were collected after transfection with RNAi of PRKD1 or CRT0066101 treatment and expression of CD44 +/CD24-surfaces was evaluated. The cells were washed with 2% FBS, stained with anti-CD44 (APC-conjugated; BD Biosciences) and anti-CD24 (BD Biosciences) in a PBS containing 2% FBS, and placed on ice in the dark for 30 minutes. The cells were washed again with a cold PBS buffer, loaded with >10,000 cells in a BD CantoII flow cytometer (BD Biosciences), and then analyzed by flow cytometry using FACSDiVa software (BD Biosciences).

In series [2] the test system is MCF-7-ADR cells. Nature of the series: Annexin V and propidium iodide (PI) staining. It is filed as cell-based, human. The following applies: FIG. 4E.
Series [3] deals with MCF-7-ADR cells. Nature of the series: Tumorsphere formation assay (TSA). As to conditions: 1 μM or 5 μM, vs control, FIG. 3B. Type of series: cell-based, human. The protocol:
For incubation of tumorspheres, cells (2000 cells/mL) were suspended and incubated in serum-free DMEM/F12 (welGENE) containing 1% penicillin, B27 (1:50; Gibco; Thermo Fisher), 20 ng/mL of an epidermal growth factor (Prospec, East Brunswick, N.J., (WelGENE) […] of insulin (Sigma-Aldrich, St. Louis, Mo., USA) and 0.4% bovine serum albumin (Sigma-Aldrich). After about 10 days, the plate was analyzed and formation of tumorspheres was verified and quantified with a microscope (Olympus IX71; Olympus, Tokyo, Japan). In order to count the number of tumorspheres, MCF-7-ADR cells were filtered and quantified by a strainer (BD Biosciences, East Rutherford, N.J., USA) having a pore size of 70 μm. Treatment with CRT0066101 was performed on 6-th day and 8-th day after incubation.

In series [4] the target is T1, PRKD1 autophosphorylation (Homo sapiens, UniProt Q15139).
T1 sequence (Q15139 1-912): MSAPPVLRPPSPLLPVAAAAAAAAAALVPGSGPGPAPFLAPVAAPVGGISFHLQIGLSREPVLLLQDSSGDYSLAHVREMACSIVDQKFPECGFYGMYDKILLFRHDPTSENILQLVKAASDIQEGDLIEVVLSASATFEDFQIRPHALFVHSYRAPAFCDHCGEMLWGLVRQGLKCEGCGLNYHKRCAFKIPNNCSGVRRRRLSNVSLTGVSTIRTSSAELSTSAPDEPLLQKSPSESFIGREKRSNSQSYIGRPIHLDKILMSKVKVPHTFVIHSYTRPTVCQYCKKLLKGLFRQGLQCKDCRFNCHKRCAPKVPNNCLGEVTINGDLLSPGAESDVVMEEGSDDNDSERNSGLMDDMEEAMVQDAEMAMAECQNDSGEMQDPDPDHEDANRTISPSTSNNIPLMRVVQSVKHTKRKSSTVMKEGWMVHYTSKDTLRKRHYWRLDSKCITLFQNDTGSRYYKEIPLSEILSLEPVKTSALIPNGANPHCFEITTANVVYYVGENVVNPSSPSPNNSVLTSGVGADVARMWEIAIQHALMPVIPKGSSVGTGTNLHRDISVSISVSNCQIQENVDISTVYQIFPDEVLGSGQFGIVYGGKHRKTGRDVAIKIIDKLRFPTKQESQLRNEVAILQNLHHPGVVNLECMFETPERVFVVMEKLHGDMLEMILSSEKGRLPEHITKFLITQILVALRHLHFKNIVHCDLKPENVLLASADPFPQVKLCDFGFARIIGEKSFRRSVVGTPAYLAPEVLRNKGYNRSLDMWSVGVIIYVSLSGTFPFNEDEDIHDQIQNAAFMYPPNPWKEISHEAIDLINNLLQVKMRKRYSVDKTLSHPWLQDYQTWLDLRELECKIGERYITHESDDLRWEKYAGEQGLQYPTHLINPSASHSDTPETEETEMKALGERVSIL
As to conditions: reference [16]; cited from earlier work.

The test system of series [5] is GSK3/β-catenin signaling. The experiment in a line: Western blot of GSK3/β-catenin signaling in MCF-7 cells. Type of series: cell-based, human. The following applies: FIG. 12A. As to the method: (§1) A total of 30 μg of a protein extract was isolated by 8% SDS-PAGE and the protein was electrophoretically transferred to a PVDF membrane. The primary antibodies used were phosphorylated PKD/PKCμ (Ser916), GSK3β, phosphorylated GSK3α (Ser21)/β (Ser9), and β-catenin. These antibodies were purchased from Cell Signaling Technology (Danvers, Mass., USA) and the PKD/PKCμ antibody was purchased from Santa Cruz Biotechnology. (β-actin (Bethyl Laboratories, Montgomery, Tex., USA) was used as a loading control. The membrane was washed with 1×PBS/0.1% Tween 20 and the bound proteins were detected with an enhanced chemiluminescent reagent (Amersham Pharmacia Biotech, Parsippany, N.J., USA).

For another series, the system named is MCF-7 cells. Nature of the series: Cell survival rate, WST-8 assay, MCF-7. It is filed as cell-based, human. As to conditions: 0.1 to 5 μM, FIG. 12B.
In series [6] the test system is MCF-7-ADR cells. The experiment in a line: MCF-7-ADR xenograft in nude mice treated with CRT0066101. Type of series: in vivo, mouse. The protocol: A control or miR-32a overexpressed tumor and a carrier or CRT0066101 treated tumor were cut and paraffin-treated slides were used. The paraffin was removed from the slides, rehydrated 3 to 4 times in Histoclear, and then passed sequentially through ethanol at different concentrations (100%, 95%, 80%, and 70%). Antigen reconstitution was performed by immersing fragments in a 0.01M citric acid solution (pH 6.0) and boiling the fragments in a microwave for 15 minutes. In the case of TUNEL analysis, an in-situ apoptosis detection kit, a fluorescent material (Roche, Indianapolis, USA) labeled apoptotic cells, and a Ki-67 primary antibody (Vector Lab, USA) were applied to the fragments and incubated at 4° C. overnight. Thereafter, the slides were incubated with DAPI and secondary antibody for two hours. Finally, the slides were treated with a mounting solution (Dako) and a photograph was taken with a confocal microscope (Zeiss).
All studies, including the use of nude mice, were approved by the committee on animal protection and use of the Yonsei University Medical center (2015-0087) and performed under conditions according to facilities without specific pathogens and the guideline of the committee. Mice were anesthetized with 150 μl saline/zoletil/rompun (7:1:1) outside each femoral region and subcutaneously injected with 1.5×10^6 of MCF-7-ADR cells. Six mice were randomly grouped and started to be treated from 10-th day after tumor graft. […] The tumor size was measured every 3 to 4 days using a caliper from formation of touched tumor to termination and the tumor volume was calculated by Equation of length×width^2×0.5236. The mice were sacrificed in a 7.5% CO2 chamber and tumors were isolated and used for immunohistochemistry and other assays.

In series [7] the test system is GSK3/β-catenin signaling. The experiment in a line: Western blot of PKD/PKCμ phosphorylation and GSK3/β-catenin signaling in MCF-7-ADR cells. Type of series: cell-based, human. As to conditions: 1 μM or 5 μM, FIG. 3A. The protocol: CRT0066101 was purchased from R&D Systems (Minneapolis, Minn., USA); this drug was resuspended in sterile distilled water and used for in vivo studies. To treat CRT0066101, MCF-7-ADR cells (American Type Culture Collection, Manassas, Va., USA) were seeded and 0.1 to 10 μM CRT0066101 was added and incubated for 1 hour. WST-8 was purchased from Enzo Life Sciences, Inc. (Farmingdale, N.Y., USA). PRKD1 siRNA and scrambled siRNA (Santa Cruz Biotechnology, Santa Cruz, Calif., USA) were transfected by using Lipofectamine RNAiMAX (Invitrogen, Carlsbad, Calif., USA).
as §1

In series [8] the test system is MCF-7-ADR cells. Nature of the series: Cell survival rate, WST-8 assay, MCF-7-ADR. Type of series: cell-based, human. As to the method:
[…] Cell survival rate was analyzed by WST-8 assay (Sigma-Aldrich) and an optical density was measured at 450 nm using a microplate reader.

[9] abbreviates: treated tumor vs control, FIG. 5G.

Results on 2 compounds are retold here after US20170369887A1, “Therapeutic compositions for breast cancer containing protein kinase D1 inhibitor” (SOOKMYUNG WOMEN'S UNIVERSITY INDUSTRY ACADEMIC COOPERATION …, priority 2016, published 2017).

For `CC[C@@H](N)CNc1ccnc(-c2cc(-c3cnn(C)c3)ccc2O)n1.Cl.Cl` [CRT0066101], the “number (Q1) of CD44+/CD24−” value in the series with MCF-7-ADR cells [1] is recorded as “also decreased”. For the same compound, in the series on MCF-7-ADR cells [2] (CRT0066101 added to doxorubicin-treated cells), the “level of apoptosis in doxorubicin-treated cells” value is “increased”. Further, the “number of tumorspheres (>70 μm)” value in the series on MCF-7-ADR cells [3] was “decreased dose-dependently”. The “growth of pancreatic cancer” value in series [4] is given as “blocked growth”. Besides, the GSK3/β-catenin signaling result in the series on GSK3/β-catenin signaling [5] is “not affected”. In the series on MCF-7 cells, the cell survival rate entry was “did not decrease”. Further, the “side effects (sign of toxicity, weight loss)” value with MCF-7-ADR cells [6] (65 mg/kg daily for 4 weeks, all animals, FIG. 5E) is on record as “did not cause side effects”. Besides, the tumor size result with MCF-7-ADR cells [6] (65 mg/kg daily for 4 weeks, oral, vs untreated control, FIG. 5D) is “reduced”. In addition, the tumor weight result in the series on MCF-7-ADR cells [6] (65 mg/kg daily for 4 weeks, vs control tumor, FIG. 5E) was “reduced”. For the same compound, the “change in mouse's weight” value with MCF-7-ADR cells [6] (65 mg/kg orally daily for 4 weeks, FIG. 5E) was “not detected”. For the same compound, in the series with MCF-7-ADR cells [6] (65 mg/kg orally daily for 4 weeks, vs control tumor, FIG. 5E), the volume of tumor result is listed as “reduced”. In addition, in the series with MCF-7-ADR cells [6] (setting [9]), the “apoptosis in tumor, TUNEL analysis” value is given as “apoptosis increased” and the “proliferation in tumor, Ki-67 staining” value is given as “proliferation decreased”. Moreover, the “phosphorylated PKD/PKCμ through GSK3/β-catenin signaling in tumor” value in the series with MCF-7-ADR cells [6] (western blot of tumor, FIG. 5F) is “down regulation”. Moreover, in the series on GSK3/β-catenin signaling [7], the “phosphorylation of PKD/PKCμ and GSK3/β-catenin” value is listed as “inhibited”. Moreover, the cell survival rate entry with MCF-7-ADR cells [8] (MCF-7-ADR cells, 0.1 to 5 μM, FIG. 4C) is recorded as “decreased cell survival rate dose-dependently”. Besides, the “cell survival rate, combination with doxorubicin” value in the series on MCF-7-ADR cells [8] (MCF-7-ADR, CRT0066101 combined with doxorubicin, vs CRT0066101 alone, FIG. 4D) is listed as “significantly lowered”.
For the compound `COc1cccc2c1C(=O)c1c(O)c3c(c(O)c1C2=O)C[C@@](O)(C(=O)CO)C[C@@H]3O[C@H]1C[C@H](N)[C@H](O)[C@H](C)O1` [doxorubicin], the initiation of apoptosis entry in the series with MCF-7-ADR cells [2] (treated cells vs control) is reported as “increased”. In addition, the cell survival rate entry with MCF-7-ADR cells [8] (MCF-7-ADR cells exposed to doxorubicin at different doses, FIG. 4A) is listed as “reduced dose-dependently”.
